For 20 molecules, inhibition results are on record in ChEMBL document CHEMBL2163249, “Exploration of natural compounds as sources of new bifunctional scaffolds targeting cholinesterases and beta amyloid aggregation: the case of chelerythrine” (Bioorg Med Chem, 2012).

Test [1] has as its target Acetylcholinesterase (Electrophorus electricus) (UniProt O42275). The note with it: at 2 mg/mL.
Description: Inhibition of electric eel AChE at 2 mg/ml by Ellman's method
Test [2] addresses Cholinesterase (Equus caballus) (UniProt P81908). The note with it: at 2 mg/mL.
Description: Inhibition of horse BChE at 2 mg/ml by Ellman's method

Molecules are shown by their SMILES. Starred links: 1 amine or outer side, 2 acyl side, 3 side chain; linkers in the order of their positions; H or OH if unused. Positions of bridges follow the written chain, without caps; N, C: chain ends. Non-standard residues stand in square brackets, D forms with d. Residues, ends and D or L forms follow the SMILES beside them. Chains are numbered I, II in the order given. Actinocin(9to1) = Cc1c2oc3c(C)ccc(C(=O)[*:1])c3nc-2c(C(=O)[*:2])c(N)c1=O; NMeV = CN[C@H](C(=O)O)C(C)C; Sar = CNCC(=O)O

Sequence of Cholinesterase (Equus caballus) (P81908 whole entry): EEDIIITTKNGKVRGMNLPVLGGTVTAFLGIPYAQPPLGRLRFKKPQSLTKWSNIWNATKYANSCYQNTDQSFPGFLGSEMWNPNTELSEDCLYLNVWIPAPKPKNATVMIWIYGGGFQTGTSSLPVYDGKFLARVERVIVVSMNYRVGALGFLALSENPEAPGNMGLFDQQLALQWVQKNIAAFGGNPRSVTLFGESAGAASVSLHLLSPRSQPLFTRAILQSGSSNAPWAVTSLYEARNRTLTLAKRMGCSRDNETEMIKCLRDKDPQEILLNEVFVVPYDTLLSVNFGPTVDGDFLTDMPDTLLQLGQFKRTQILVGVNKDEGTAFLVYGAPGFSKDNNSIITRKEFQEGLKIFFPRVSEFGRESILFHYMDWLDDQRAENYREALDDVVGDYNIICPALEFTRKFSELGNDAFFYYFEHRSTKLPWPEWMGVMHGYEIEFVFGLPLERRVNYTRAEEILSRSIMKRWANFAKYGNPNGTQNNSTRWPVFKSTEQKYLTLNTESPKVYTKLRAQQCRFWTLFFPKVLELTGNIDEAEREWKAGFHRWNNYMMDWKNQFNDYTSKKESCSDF
Sequence of Acetylcholinesterase (Electrophorus electricus) (O42275 24-633 limits assumed): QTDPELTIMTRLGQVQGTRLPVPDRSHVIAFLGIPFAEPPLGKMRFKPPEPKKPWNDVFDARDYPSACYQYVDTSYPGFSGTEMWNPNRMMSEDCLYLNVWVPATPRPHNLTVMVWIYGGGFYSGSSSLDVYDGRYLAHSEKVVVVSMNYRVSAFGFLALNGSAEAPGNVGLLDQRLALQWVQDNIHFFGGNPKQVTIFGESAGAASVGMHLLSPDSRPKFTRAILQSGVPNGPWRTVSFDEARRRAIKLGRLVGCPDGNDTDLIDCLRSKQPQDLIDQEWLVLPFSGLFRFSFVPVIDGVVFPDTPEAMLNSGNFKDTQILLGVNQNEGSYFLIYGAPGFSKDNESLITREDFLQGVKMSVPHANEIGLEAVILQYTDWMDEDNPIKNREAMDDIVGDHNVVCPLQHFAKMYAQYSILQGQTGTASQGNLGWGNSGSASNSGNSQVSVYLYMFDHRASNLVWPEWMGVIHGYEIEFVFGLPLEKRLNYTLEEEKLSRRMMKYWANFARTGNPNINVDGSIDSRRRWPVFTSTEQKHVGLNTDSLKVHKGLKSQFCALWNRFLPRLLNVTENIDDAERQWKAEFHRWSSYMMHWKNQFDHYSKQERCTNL

As a reminder, the inhibition is the drop in the measured response relative to a control, in per cent. In the case of `c1ccc2c(c1)[nH]c1cnccc12`, the inhibition in test [1] is -1.66%; in test [2], 28.7%.

For the molecule `COc1c2ccoc2cc2oc(=O)ccc12`, the inhibition came to 21.3% in test [1] and 10.3% in test [2].

Consider `CCCC(=O)O[C@@H]1[C@@H](C)[C@@]2(O)[C@@H](C=C(CO)C[C@]3(O)C(=O)C(C)=C[C@@H]23)[C@@H]2C(C)(C)[C@]12OC(=O)CCC` (stereo in doubt; form 2), for which the inhibition in test [1] came out at 19.5%; in test [2] it was 5.87%.

With `COc1cc(C(=O)O[C@H]2C[C@@H]3CC[C@]2(C)C3(C)C)ccc1O`, the inhibition in test [1] amounted to 25.2%; in test [2], 1.44%.

As for `C=C(C)[C@@H]1[C@H]2OC(=O)[C@@H]1[C@]1(O)C[C@H]3O[C@]34C(=O)O[C@H]2[C@]14C`, the inhibition in test [1] is 11.4%; in test [2], -3.55%.

Take `C/C=C1\[C@H]2C=C(C)C[C@]1(N)c1ccc(=O)[nH]c1C2`: the inhibition in test [1] is 97.3%; in test [2] it was 11.8%.

Turning to `CC[C@]12CCCN3CCc4c(n(c5ccccc45)C(=O)C1)[C@@H]32`, the inhibition in test [1] was found to be 12.1%; in test [2] it was 0.04%.

Regarding `C[C@@H]1O[C@@H](Oc2c(-c3ccc(O)c(O)c3)oc3cc(O)cc(O)c3c2=O)[C@H](O)[C@H](O)[C@H]1O`, the inhibition in test [1] was 0.25%; in test [2] it was -6.56%.

Regarding `COc1c2c3c4c(c(OC)c(=O)c5c(O)cc(OC)c(c6c(OC)cc(O)c(c1=O)c63)c54)[C@@H](C(C)=O)[C@@](C)(O)C2` (relative stereo), the inhibition in test [1] was determined as 5.56%; in test [2] it was 1.53%.

Regarding `C=C[C@H]1CN2CC[C@H]1C[C@H]2[C@H](O)c1ccnc2ccccc12`, the inhibition in test [1] was 3.63%; in test [2], -0.03%.

Consider `Cc1coc2c1C(=O)C(=O)c1c-2ccc2c1CCCC2(C)C`, for which the figures for the inhibition in test [1] and in test [2] were 13.1% and -0.66%, respectively.

Take `CC[C@@H](C(=O)[C@@H](C)[C@@H](O)[C@H](C)CCc1ccc(C)c(O)c1C(=O)O)[C@H]1O[C@](CC)([C@H]2CC[C@](O)(CC)[C@H](C)O2)C[C@@H]1C`: the inhibition is -1.88% in test [1] and 10.5% in test [2].

As to `Cc1c2oc3c(C)ccc(C(=O)N[C@@H]4C(=O)N[C@H](C(C)C)C(=O)N5CCC[C@H]5C(=O)N(C)CC(=O)N(C)[C@@H](C(C)C)C(=O)O[C@@H]4C)c3nc-2c(C(=O)N[C@@H]2C(=O)N[C@H](C(C)C)C(=O)N3CCC[C@H]3C(=O)N(C)CC(=O)N(C)[C@@H](C(C)C)C(=O)O[C@@H]2C)c(N)c1=O` (I: T[dV]P[Sar][NMeV] / II: T[dV]P[Sar][NMeV]; ester I:1-I:C, II:1-II:C; linker I:N-II:N via Actinocin(9to1)), the figures for the inhibition in test [1] and in test [2] were -2.56% and 3.31%, respectively.

For `C[C@@H]1O[C@@H](OC[C@H]2O[C@@H](Oc3cc(O)c4c(c3)O[C@H](c3ccc(O)cc3)CC4=O)[C@H](O)[C@@H](O)[C@@H]2O)[C@H](O)[C@H](O)[C@H]1O`, the inhibition is 22.1% in test [1] and -0.5% in test [2].

Consider `O=c1cc(-c2ccc(O)cc2)oc2cc(O)cc(O)c12`, for which the inhibition in test [1] stood at 18.4%; in test [2], 4.5%.

On to `Cc1nccc2c1[nH]c1ccccc12`, for which the values for the inhibition in test [1] and in test [2] were 22.2% and 39.4%, respectively.

Take `CC[C@@]1(O)C(=O)OCc2c1cc1n(c2=O)Cc2cc3cc(O)ccc3nc2-1`: the inhibition in test [1] was -5.24%; in test [2], 6.63%.

With `CC1=C[C@]23C(=O)[C@@H](C=C(COC(=O)c4ccccc4)[C@@H](O)[C@]2(O)[C@H]1OC(=O)c1ccccc1)[C@H]1[C@@H](C[C@H]3C)C1(C)C`, the inhibition is -0.16% in test [1] and 1% in test [2].

Regarding `OC[C@@H]1CCCN2CCCC[C@H]12`, the inhibition in test [1] was 1.61%; in test [2] it was -7.44%.

On to `C[C@H]1[C@H]2CC[C@H]3[C@@H]4CC=C5C[C@@H](N(C)C)CC[C@]5(C)[C@H]4CC[C@]23CN1C`, for which the inhibition in test [1] was 29.9%; in test [2], 45.2%.
